{"source": "ChEMBL document CHEMBL5537181", "about": "(J Med Chem, 2024)", "key": {"[1]": {"assay": "Antagonist activity at human alpha9N152G mutant alpha10 nAChR expressed in acetylcholine-induced Xenopus laevis oocytes assessed as inhibition of acetylcholine-induced current at 1:1 ratio of protein by two electrode voltage-clamp assay", "format": "cell-based", "settings": "Oocyte"}, "[2]": {"assay": "Antagonist activity at human alpha9alpha10G152N mutant nAChR expressed in acetylcholine-induced Xenopus laevis oocytes assessed as inhibition of acetylcholine-induced current at 1:3 ratio of protein by two electrode voltage-clamp assay", "format": "cell-based", "settings": "Oocyte"}, "[3]": {"biological_target": "Neuronal acetylcholine receptor; alpha3/beta2 (Homo sapiens) (UniProt P17787+P32297)", "assay": "Antagonist activity at human alpha3beta2 nAChR expressed in acetylcholine-induced Xenopus laevis oocytes assessed as inhibition of acetylcholine-induced current at 100 nM by two electrode voltage-clamp assay relative to control", "format": "cell-based", "settings": "Oocyte"}, "[4]": {"biological_target": "Neuronal acetylcholine receptor; alpha4/beta2 (Rattus norvegicus) (UniProt P09483+P12390)", "assay": "Antagonist activity at rat alpha4beta2 nAChR expressed in acetylcholine-induced Xenopus laevis oocytes assessed as inhibition of acetylcholine-induced current at 100 nM by two electrode voltage-clamp assay", "format": "cell-based", "settings": "Oocyte"}, "[5]": {"biological_target": "Neuronal acetylcholine receptor; alpha3/beta4 (Rattus norvegicus) (UniProt P04757+P12392)", "assay": "Antagonist activity at rat alpha3beta4 nAChR expressed in acetylcholine-induced Xenopus laevis oocytes assessed as inhibition of acetylcholine-induced current at 100 nM by two electrode voltage-clamp assay relative to control", "format": "cell-based", "settings": "Oocyte"}, "[6]": {"biological_target": "Voltage-dependent N-type calcium channel subunit alpha-1B (Homo sapiens, UniProt Q00975)", "sequence (Q00975 whole entry)": "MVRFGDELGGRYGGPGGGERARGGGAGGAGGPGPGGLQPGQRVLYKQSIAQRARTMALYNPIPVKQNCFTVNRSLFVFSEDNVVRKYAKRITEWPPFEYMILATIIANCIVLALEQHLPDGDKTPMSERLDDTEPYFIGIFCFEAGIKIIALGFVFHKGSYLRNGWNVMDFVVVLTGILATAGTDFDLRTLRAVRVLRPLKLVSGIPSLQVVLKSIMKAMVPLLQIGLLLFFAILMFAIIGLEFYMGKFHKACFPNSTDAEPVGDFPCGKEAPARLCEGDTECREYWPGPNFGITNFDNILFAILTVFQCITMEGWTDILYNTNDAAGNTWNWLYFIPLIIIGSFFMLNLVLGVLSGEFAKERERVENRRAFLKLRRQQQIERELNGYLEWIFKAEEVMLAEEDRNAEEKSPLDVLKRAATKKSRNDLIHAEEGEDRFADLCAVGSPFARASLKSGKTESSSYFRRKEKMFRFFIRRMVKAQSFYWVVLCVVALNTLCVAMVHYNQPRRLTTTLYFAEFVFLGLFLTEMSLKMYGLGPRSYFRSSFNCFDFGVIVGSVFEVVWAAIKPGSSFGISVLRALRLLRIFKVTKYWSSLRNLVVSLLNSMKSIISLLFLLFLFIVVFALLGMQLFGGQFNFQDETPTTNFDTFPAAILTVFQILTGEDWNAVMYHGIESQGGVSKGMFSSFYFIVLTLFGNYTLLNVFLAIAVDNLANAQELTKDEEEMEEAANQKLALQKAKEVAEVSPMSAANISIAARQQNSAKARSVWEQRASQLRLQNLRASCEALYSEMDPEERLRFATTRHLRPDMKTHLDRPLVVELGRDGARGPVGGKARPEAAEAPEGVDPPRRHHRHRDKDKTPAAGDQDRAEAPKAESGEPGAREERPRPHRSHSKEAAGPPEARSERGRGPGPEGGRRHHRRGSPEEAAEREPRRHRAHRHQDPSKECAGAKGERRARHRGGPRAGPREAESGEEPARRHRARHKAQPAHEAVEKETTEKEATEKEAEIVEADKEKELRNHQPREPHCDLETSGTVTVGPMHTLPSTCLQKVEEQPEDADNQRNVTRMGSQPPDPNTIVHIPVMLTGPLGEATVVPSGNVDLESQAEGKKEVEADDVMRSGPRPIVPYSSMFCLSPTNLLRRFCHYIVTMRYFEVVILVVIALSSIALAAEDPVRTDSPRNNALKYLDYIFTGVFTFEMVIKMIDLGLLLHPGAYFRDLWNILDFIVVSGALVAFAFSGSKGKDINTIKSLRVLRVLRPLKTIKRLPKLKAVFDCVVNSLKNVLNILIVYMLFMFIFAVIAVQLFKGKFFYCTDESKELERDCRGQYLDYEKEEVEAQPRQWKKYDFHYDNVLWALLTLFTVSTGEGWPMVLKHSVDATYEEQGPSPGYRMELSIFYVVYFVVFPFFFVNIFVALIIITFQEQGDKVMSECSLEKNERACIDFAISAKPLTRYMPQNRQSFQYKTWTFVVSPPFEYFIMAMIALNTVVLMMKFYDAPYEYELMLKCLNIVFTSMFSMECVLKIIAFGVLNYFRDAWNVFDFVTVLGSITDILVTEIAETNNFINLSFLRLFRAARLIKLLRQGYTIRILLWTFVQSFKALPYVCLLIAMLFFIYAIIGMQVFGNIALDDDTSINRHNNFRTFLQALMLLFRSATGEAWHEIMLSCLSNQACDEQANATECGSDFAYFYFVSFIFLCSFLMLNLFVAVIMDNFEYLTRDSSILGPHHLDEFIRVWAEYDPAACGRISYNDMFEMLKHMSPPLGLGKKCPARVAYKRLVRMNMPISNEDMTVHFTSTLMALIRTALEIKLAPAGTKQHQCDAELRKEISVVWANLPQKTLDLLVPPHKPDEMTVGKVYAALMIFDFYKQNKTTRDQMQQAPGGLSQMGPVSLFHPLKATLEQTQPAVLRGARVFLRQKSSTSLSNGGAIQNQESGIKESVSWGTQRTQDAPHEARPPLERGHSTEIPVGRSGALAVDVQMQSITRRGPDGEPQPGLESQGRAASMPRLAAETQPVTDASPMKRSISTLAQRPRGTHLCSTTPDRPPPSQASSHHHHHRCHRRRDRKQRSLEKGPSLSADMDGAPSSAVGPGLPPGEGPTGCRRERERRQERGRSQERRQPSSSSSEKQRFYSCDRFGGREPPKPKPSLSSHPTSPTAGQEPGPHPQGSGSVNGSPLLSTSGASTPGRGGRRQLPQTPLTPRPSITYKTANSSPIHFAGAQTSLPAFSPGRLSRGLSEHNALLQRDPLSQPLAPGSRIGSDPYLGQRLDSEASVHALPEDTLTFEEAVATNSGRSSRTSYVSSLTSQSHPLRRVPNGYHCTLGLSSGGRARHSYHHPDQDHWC", "assay": "Inhibition of human Cav2.2 channel transfected in HEK293T cells assessed as inhibition of Cav2.2-mediated Ba2+ current measured for 3 to 5 days by whole-cell patch clamp assay", "format": "cell-based"}, "[7]": {"assay": "Toxicity in rat assessed as change in behavior at 250 microg/kg,IM administrated for 14 consecutive days by conditioned place preference assay", "settings": "in vivo, 0.25 mg/kg, dose 250 µg/kg"}, "[8]": {"assay": "Toxicity in rat assessed as motor impairment at 250 microg/kg,IM administrated for 14 consecutive days by rotarod test", "settings": "in vivo, 0.25 mg/kg, dose 250 µg/kg"}, "[9]": {"biological_target": "T1, Potassium voltage-gated channel subfamily KQT member 3 (Homo sapiens) (UniProt O43525)", "T1 sequence (whole entry)": "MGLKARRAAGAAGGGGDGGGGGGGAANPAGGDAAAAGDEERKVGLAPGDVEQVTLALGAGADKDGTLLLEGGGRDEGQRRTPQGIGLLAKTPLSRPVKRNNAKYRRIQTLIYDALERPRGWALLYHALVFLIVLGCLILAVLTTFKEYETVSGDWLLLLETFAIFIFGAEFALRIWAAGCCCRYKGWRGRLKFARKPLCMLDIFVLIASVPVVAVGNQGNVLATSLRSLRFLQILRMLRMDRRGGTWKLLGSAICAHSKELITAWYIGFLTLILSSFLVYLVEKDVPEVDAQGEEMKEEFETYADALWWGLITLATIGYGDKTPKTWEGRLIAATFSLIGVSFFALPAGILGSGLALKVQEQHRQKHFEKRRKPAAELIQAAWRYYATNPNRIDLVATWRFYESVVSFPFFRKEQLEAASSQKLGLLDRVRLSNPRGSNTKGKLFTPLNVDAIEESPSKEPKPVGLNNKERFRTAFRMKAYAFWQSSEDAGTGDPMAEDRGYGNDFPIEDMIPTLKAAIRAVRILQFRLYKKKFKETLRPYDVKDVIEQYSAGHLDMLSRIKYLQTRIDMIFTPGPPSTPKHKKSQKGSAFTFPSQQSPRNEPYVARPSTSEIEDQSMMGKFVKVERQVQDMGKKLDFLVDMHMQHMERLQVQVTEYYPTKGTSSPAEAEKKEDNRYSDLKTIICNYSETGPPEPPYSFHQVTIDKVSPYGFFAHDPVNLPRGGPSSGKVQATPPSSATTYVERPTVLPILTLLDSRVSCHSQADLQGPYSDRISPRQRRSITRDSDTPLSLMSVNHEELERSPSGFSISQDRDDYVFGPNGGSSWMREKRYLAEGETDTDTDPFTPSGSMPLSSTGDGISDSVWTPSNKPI", "assay": "Inhibition of KCNQ3 (unknown origin) at 1 uM"}, "[10]": {"biological_target": "T2, Acid-sensing ion channel 3 (Homo sapiens) (UniProt Q9UHC3)", "T2 sequence (whole entry)": "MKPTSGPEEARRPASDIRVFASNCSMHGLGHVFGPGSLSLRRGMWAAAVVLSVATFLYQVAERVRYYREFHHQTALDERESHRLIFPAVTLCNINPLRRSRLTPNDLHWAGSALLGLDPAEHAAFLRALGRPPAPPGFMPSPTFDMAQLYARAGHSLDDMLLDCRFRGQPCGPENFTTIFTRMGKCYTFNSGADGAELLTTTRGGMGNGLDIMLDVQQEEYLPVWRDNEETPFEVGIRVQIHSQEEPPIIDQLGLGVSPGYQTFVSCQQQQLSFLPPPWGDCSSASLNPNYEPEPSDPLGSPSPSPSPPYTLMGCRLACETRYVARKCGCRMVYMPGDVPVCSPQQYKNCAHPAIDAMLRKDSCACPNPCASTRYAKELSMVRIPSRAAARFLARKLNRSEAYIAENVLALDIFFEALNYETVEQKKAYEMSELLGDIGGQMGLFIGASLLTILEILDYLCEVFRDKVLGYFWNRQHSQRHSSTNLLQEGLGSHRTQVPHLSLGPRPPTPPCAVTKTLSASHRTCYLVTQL", "assay": "Inhibition of ASIC3 (unknown origin) at 1 uM"}}, "note": "Calls of active or inactive are those of the source. No cut-off for these calls is given here.", "data": [{"smiles": "CC[C@H](C)[C@H](NC(=O)[C@H](CCCNC(=N)N)NC(=O)[C@H](CCCNC(=N)N)NC(=O)[C@H](Cc1ccc(O)cc1)NC(=O)[C@H](CCCNC(=N)N)NC(=O)[C@H](CCCNC(=N)N)NC(=O)[C@H](CCCNC(=N)N)NC(=O)[C@H](CCCNC(=N)N)NC(=O)[C@H](CC(=O)O)NC(=O)[C@H](Cc1ccc(O)cc1)NC(=O)[C@@H]1CCCN1C(=O)[C@H](CO)NC(=O)[C@H](CCCNC(=N)N)NC(=O)[C@H](Cc1ccc(O)cc1)NC(=O)[C@H](CCCNC(=N)N)NC(=O)CN)C(=O)N[C@H](C(=O)N[C@@H](CC(=O)O)C(N)=O)[C@@H](C)O", "values": [{"measurement": "IC50", "setting": "[1]", "value": 3.6, "unit": "nM"}, {"measurement": "IC50", "setting": "[2]", "value": 21, "unit": "nM"}, {"measurement": "inhibition", "setting": "[3]", "value": 25, "unit": "%"}, {"measurement": "inhibition", "setting": "[4]", "value": "inactive"}, {"measurement": "inhibition", "setting": "[5]", "value": 20, "unit": "%"}, {"measurement": "IC50", "setting": "[6]", "value": 4.6, "unit": "nM"}, {"measurement": "Activity", "setting": "[7]", "value": "Non-Toxic"}, {"measurement": "Activity", "setting": "[8]", "value": "Non-Toxic"}, {"measurement": "inhibition", "setting": "[9]", "value": "inactive"}, {"measurement": "inhibition", "setting": "[10]", "value": "inactive"}]}]}
